Results: US20240067639A1, “SMALL MOLECULES THAT TARGET THE RNA THAT CAUSES ALS” (EXPANSION THERAPEUTICS, INC., priority 2020, published 2024)
Like-named read-outs stand apart in the source and are kept apart here.

Key:
[1] = test system: RAN translation of (G4C2)66-No ATG-GFP in HEK293T cells; test: Cell-based assay of RAN translation inhibition (GFP/mCherry reporter); details: Homo sapiens, HEK-293T; for IC25: 24 h, read-out: RANT IC25
[2] = target: biotinylated r(G4C2)8 RNA and hnRNP H1-His6; test: TR-FRET hnRNP H binding assay
Procedure: TR-FRET hnRNP H Binding Assay. The TR-FRET assays were performed as previously described (Disney et al., 2012) except the final concentrations of biotinylated r(G4C2)8 (SEQ ID NO: 2) RNA and hnRNP H1-His6 were 80 nM and 75 nM, respectively. The RNA was folded by heating to 95° C. for 5 min in 1× Folding Buffer followed by slowly cooling to room temperature. The buffer was adjusted to 1×TR-FRET Assay Buffer followed by addition of compound. The mixture was incubated for 15 min at room temperature and then hnRNP H1-His6 was added. After an additional 15 min incubation, streptavidin-XL665 (HTRF, Cisbio Bioassays) and anti-His6-Tb (HTRF, Cisbio Bioassays) were added to a final concentration of 40 nM and 0.44 ng/μL, respectively. After incubating for 1 h, TR-FRET was measured as previously described. The IC50s were either calculated by fitting the equation (1) in Graphpad Prism.

[3] = Table E, inhibition of RAN translation, HEK293T, read-out: IC50
[4] = Table D, HEK293T, 24 h treatment

| Ki ([2]; Table D) | Compound | IC50 [1, 3] | other results |
| --- | --- | --- | --- |
| – | Cc1c2ccncc2cc2c3cc(OCCN4CCC(O)CC4)ccc3n(C)c12 [Compound 228, 1-(2-((5,6-dimethyl-6H-pyrido[4,3-b]carbazol-9-yl)oxy)ethyl)piperidin-4-ol] | – | IC25 [1]: 1.3 µM |
| – | Cc1c2ccncc2cc2c1oc1ccc(OCC3=NCCN3)cc12 [Compound 233, 9-((4,5-dihydro-1H-imidazol-2-yl)methoxy)-5-methylbenzofuro[2,3-g]isoquinoline] | – | Ki ([2]; Table F): 7.5 µM |
| > 200 µM | COc1ccc2c(c1)c1cc3cnccc3c(C)c1n2Cc1ccccc1 [Compound 17, 6-benzyl-9-methoxy-5-methyl-6H-pyrido[4,3-b]carbazole] | – | – |
| > 200 µM | COc1ccc2c(c1)c1cc3cnccc3c(C)c1n2C(C)C [Compound 18, 6-isopropyl-9-methoxy-5-methyl-6H-pyrido[4,3-b]carbazole] | – | – |
| > 200 µM | COc1ccc2c(c1)c1cc3c(C(=O)O)nccc3c(C)c1n2C [Compound 24, 9-methoxy-5,6-dimethyl-6H-pyrido[4,3-b]carbazole-1-carboxylic acid] | – | – |
| – | COc1ccc2[nH]c3c(C)c4ccnc(C(=O)NCCO)c4cc3c2c1 [Compound 207] | 6 µM | – |
| – | COc1ccc2[nH]c3c(C)c4ccnc(C(=O)NCCN(C)C)c4cc3c2c1 [Compound 209] | 3.1 µM | – |
| – | CCOC(=O)C1=NCCc2c1cc1c([nH]c3ccc(OC)cc31)c2C [Compound 203] | > 12.5 µM | – |
| > 200 µM | COc1ccc2c(c1)c1cc3cnccc3c(C)c1n2Cc1ccncc1 [Compound 16, 9-methoxy-5-methyl-6-(pyridin-4-ylmethyl)-6H-pyrido[4,3-b]carbazole] | – | – |
| – | COc1ccc2[nH]c3c(C)c4ccnc(C(=O)NCCCN(C)C)c4cc3c2c1 [Compound 210] | 10.3 µM | – |
| – | Cc1c2ccncc2cc2c3cc(C(=O)OCCN(C)C)ccc3n(C)c12 [Compound 239, 2-(dimethylamino)ethyl 5,6-dimethyl-6H-pyrido[4,3-b]carbazole-9-carboxylate] | – | Ki ([2]; Table F): 24 µM |
| – | Cc1c2ccnc(C(=O)N[C@H](C)CN(C)C)c2cc2c3c(OCCCN4CCN(C)CC4)cccc3n(C)c12 [Compound 241, (R)—N-(1-(dimethylamino)propan-2-yl)-5,6-dimethyl-10-(3-(4-methylpiperazin-1-yl)propoxy)-6H-pyrido[4,3-b]carbazole-1-carboxamide] | – | Ki ([2]; Table F): 1.8 µM |
| > 200 µM | Cc1c2ccncc2cc2c3cc(OCC(=O)O)ccc3n(C)c12 [Compound 4b, 2-((5,6-dimethyl-6H-pyrido[4,3-b]carbazol-9-yl)oxy)acetic acid] | – | – |
| > 200 µM | COc1ccc2c(c1)c1cc3cnccc3c(C)c1n2CC1=NCCN1 [Compound 21, 6-((4,5-dihydro-1H-imidazol-2-yl)methyl)-9-methoxy-5-methyl-6H-pyrido[4,3-b]carbazole] | – | – |
| – | Cc1c2ccncc2cc2c3cc(OCCN4CCCC4)ccc3n(C)c12 [Compound 7, 5,6-dimethyl-9-(2-(pyrrolidin-1-yl)ethoxy)-6H-pyrido[4,3-b]carbazole] | – | IC25 [1, 4]: > 5 µM |
| 21 µM | Cc1c2ccncc2cc2c3cc(OCC(=N)N)ccc3n(C)c12 [Example 45, 2-((5,6-dimethyl-6H-pyrido[4,3-b]carbazol-9-yl)oxy)acetimidamide] | – | – |
| 27 µM | Cc1c2ccncc2cc2c3cc(OCC4=NCCN4)ccc3n(CCCN3CCN(C)CC3)c12 [Example 43, 9-((4,5-dihydro-1H-imidazol-2-yl)methoxy)-5-methyl-6-(3-(4-methylpiperazin-1-yl)propyl)-6H-pyrido[4,3-b]carbazole] | – | – |
| 4.2 µM | COc1cccc2c1c1cc3c(C(=O)N[C@H](C)CN(C)C)nccc3c(C)c1n2C [Example 65, (R)—N-(1-(dimethylamino)propan-2-yl)-10-methoxy-5,6-dimethyl-6H-pyrido[4,3-b]carbazole-1-carboxamide] | – | – |

| Ki ([2]; Table D) | Compound | IC50 [1, 3] | other results |
| --- | --- | --- | --- |
| – | Cn1c2ccc(OCCN3CCOCC3)cc2c2cc3ncccc3cc21 [Compound 225, 4-(2-((6-methyl-6H-pyrido[3,2-b]carbazol-9-yl)oxy)ethyl)morpholine] | – | Ki ([2]; Table F): > 200 µM |
| – | CN(C)CCOc1ccc2c(c1)c1cc3ncccc3cc1n2C [Compound 226, N,N-dimethyl-2-((6-methyl-6H-pyrido[3,2-b]carbazol-9-yl)oxy)ethanamine] | – | Ki ([2]; Table F): 13 µM |
| – | COCCNC(=O)c1ccc2c(c1)c1cc3cnccc3c(C)c1n2C [Example 79, N-(2-methoxyethyl)-5,6-dimethyl-6H-pyrido[4,3-b]carbazole-9-carboxamide] | – | IC25 [1, 4]: 1.1 µM |
| – | COc1ccc2c(c1)c1cc3c(C(=O)NCCN(C)C)nccc3c(C)c1n2C [Compound 211] | 3.1 µM | – |
| – | Cc1c2ccnc(C(C)C)c2cc2c3cc(C(=O)NCCN(C)C)ccc3n(C)c12 [Compound 238, N-(2-(dimethylamino)ethyl)-1-isopropyl-5,6-dimethyl-6H-pyrido[4,3-b]carbazole-9-carboxamide] | – | Ki ([2]; Table F): 20 µM |
| 1 µM | Cc1c2ccncc2cc2c3cc(OCC(=O)NCCCN(C)C)ccc3n(C)c12 [Example 58, 2-((5,6-dimethyl-6H-pyrido[4,3-b]carbazol-9-yl)oxy)-N-(3(dimethylamino)propyl)-acetamide] | – | – |
| > 200 µM | COc1ccc2oc3c(C)c4ccncc4cc3c2c1 [Example 66, 9-methoxy-5-methyl-benzofuro[2,3-g]isoquinoline] | – | – |
| > 200 µM | Cc1c2ccncc2cc2c3cc(OCC#N)ccc3n(C)c12 [Compound 13, 2-((5,6-dimethyl-6H-pyrido[4,3-b]carbazol-9-yl)oxy)acetonitrile] | – | – |
| – | Cc1c2ccncc2cc2c3cc(C(=O)NCCN)ccc3n(C)c12 [Example 74, N-(2-aminoethyl)-5,6-dimethyl-6H-pyrido[4,3-b]carbazole-9-carboxamide] | – | IC25 [1, 4]: > 5 µM |
| – | CCCNC(=O)c1nccc2c(C)c3[nH]c4ccc(OC)cc4c3cc12 [Compound 206] | > 12.5 µM | – |
| – | Cc1c2ccncc2cc2c3cc(C(=O)NCCOC(C)(C)C)ccc3n(C)c12 [Compound 301, N-(2-(tert-butoxy)ethyl)-5,6-dimethyl-6H-pyrido[4,3-b]carbazole-9-carboxamide] | – | IC50 ([1]; Table G, HEK293T, read-out: RANT IC50): 13 µM |
| – | Cc1c2ccncc2cc2c3cc(Oc4ccccn4)ccc3n(C)c12 [Compound 305, 5,6-dimethyl-9-(pyridin-2-yloxy)-6H-pyrido[4,3-b]carbazole] | – | IC50 ([1]; read-out: RANT IC50): 18 µM |
| – | COc1ccc2[nH]c3c(C)c4ccnc(C(=O)NCCN)c4cc3c2c1 [Compound 208] | 2.2 µM | – |
| – | CCOC(=O)c1nccc2c(C)c3[nH]c4ccc(OC)cc4c3cc12 [Compound 202, Ethyl-9-methoxy-5-methyl-6H-pyrido[4,3-b]carbazole-1-carboxylate] | 12 µM | – |
| – | COCCNC(=O)c1nccc2c(C)c3[nH]c4ccc(OC)cc4c3cc12 [Compound 205] | 12.5 µM | – |
| – | COc1ccc2c(c1)c1cc3c(C(=O)N[C@H](C)CN(C)C)nccc3c(C)c1n2C [Compound 212, (R)—N-(1-(dimethylamino)propan-2-yl)-9-methoxy-5,6-dimethyl-6H-pyrido[4,3-b]carbazole-1-carboxamide] | 3.1 µM | – |
| – | Cc1c2ccncc2cc2c3cc(C(=O)N4CCNCC4)ccc3n(C)c12 [Example 72, (5,6-dimethyl-6H-pyrido[4,3-b]carbazol-9-yl)(piperazin-1-yl)methanone] | – | IC25 [1, 4]: > 5 µM |
| – | CCOC(=O)c1nccc2c(C)c3c(cc12)c1cc(OC)ccc1n3C [Compound 204, Ethyl-9-methoxy-5,6-dimethyl-6H-pyrido[4,3-b]carbazole-1-carboxylate] | 12.5 µM | – |
